Assay [1] concerns 3D7 P. falciparum strain. The assay can be described thus: parasite proliferation assay in infected red blood cells (SYBR Green I). Format: cell-based, Plasmodium falciparum. The following applies: Plasmodium falciparum, 3D7, Erythrocyte, 3D7 strain; read-out: EC50 3D7 strain. In outline: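 P. falciparum 3D7 grown in O+ human erythrocytes to 3–8% parasitemia and exposed to compounds. Proliferation read as the increase in parasite DNA. Detection used SYBR Green I in saponin/triton-X/EDTA lysis buffer, with overnight lysis at room temperature.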

In assay [2] the test system is W2 strain. The assay can be described thus: parasite proliferation assay in infected red blood cells (SYBR Green I), W2 strain. The class given is cell-based, Plasmodium falciparum. The following applies: Plasmodium falciparum, Erythrocyte. From the text: Compounds of the invention can be assayed to measure their capacity to inhibit proliferation of parasitemia in infected red blood cells. The proliferation is quantified by the addition of SYBR Green I (INVITROGEN)® dye which has a high affinity for double stranded DNA.

Usually EC50 stands for the concentration that produces a half-maximal response. As to `CC1(C)c2nc(-c3ccc(F)cc3)c(Nc3ccc(Cl)cc3)n2CCN1C(=O)CN` [Compound 417, 2-amino-1-(3-(4-chlorophenylamino)-2-(4-fluorophenyl)-8,8-dimethyl-5,6-dihydroimidazo[1,2-a]pyrazin-7(8H)-yl)ethanone], the EC50 in assay [1] stood at 0.01 µM; in assay [2] it was 0.006 µM.
The like results for `Cc1ccc(Nc2c(-c3cc(F)ccc3F)nc3n2CCN(C(=O)CN)C3)cc1` [Compound 418] were, in that order, 0.09 µM and 0.146 µM.
Consider `CC1(C)c2nc(-c3ccc(F)cc3)c(Nc3ccc(Cl)c(F)c3)n2CCN1C(=O)CN` [Compound 419], for which the values for the EC50 in assay [1] and in assay [2] were 0.03 µM and 0.024 µM, respectively.
Taken in the same sequence, the figures for `CC1(C)NCCn2c1nc(-c1ccc(F)cc1)c2Nc1ccc(Cl)c(F)c1` [Compound 420] were 0.02 µM and 0.028 µM.
Taken in the same sequence, the figures for `CC1(C)NCCn2c1nc(-c1ccc(F)cc1)c2Nc1ccc(F)c(F)c1` [Compound 422] were 0.01 µM and 0.021 µM.
The like results for `CC1(C)NCCn2c1nc(-c1ccc(F)cc1)c2Nc1ccc(F)c(Cl)c1` [Compound 424] were, in that order, 0.02 µM and 0.03 µM.
With `CC1(C)c2nc(-c3ccc(F)cc3)c(Nc3ccc(C#N)cc3)n2CCN1C(=O)CN` [Compound 425], the EC50 in assay [1] was found to be 0.01 µM; in assay [2], 0.012 µM.
The like results for `CC1(C)NCCn2c1nc(-c1ccc(F)cc1)c2Nc1ccc(C#N)cc1` [Compound 426] were, in that order, 0.18 µM and 0.271 µM.
Consider `COc1cc(Nc2c(-c3ccc(F)cc3)nc3n2CCN(C(=O)C(C)(C)N)C3)cc(F)c1F` [Compound 427], for which the EC50 in assay [1] is 0.21 µM; in assay [2] it was 0.436 µM.
Taken in the same sequence, the figures for `Cc1cc(Nc2c(-c3ccc(F)cc3)nc3n2CCN(C(=O)C(C)(C)N)C3)cc(C)c1F` [Compound 428] were 0.17 µM and 0.242 µM.
The like results for `N[C@@H](CC1CCC1)C(=O)N1CCn2c(nc(-c3ccc(F)cc3)c2Nc2ccc(F)c(F)c2)C1` [Compound 429] were, in that order, 0.02 µM and 0.036 µM.
The like results for `CC(C)[C@@H](O)C(=O)N1CCn2c(nc(-c3ccc(F)cc3)c2Nc2ccc(F)c(F)c2)C1` [Compound 430] were, in that order, 0.01 µM and 0.019 µM.
In the case of `N[C@@H](Cc1cscn1)C(=O)N1CCn2c(nc(-c3ccc(F)cc3)c2Nc2ccc(F)c(F)c2)C1` [Compound 431], the EC50 in assay [1] worked out at 0.07 µM; in assay [2], 0.08 µM.
The like results for `Cc1ccc(C[C@H](N)C(=O)N2CCn3c(nc(-c4ccc(F)cc4)c3Nc3ccc(F)c(F)c3)C2)cc1` [Compound 432] were, in that order, 0.06 µM and 0.067 µM.
Taken in the same sequence, the figures for `N[C@@H](Cc1ccc(F)c(F)c1)C(=O)N1CCn2c(nc(-c3ccc(F)cc3)c2Nc2ccc(F)c(F)c2)C1` [Compound 433] were 0.04 µM and 0.049 µM.
`CC(C)[C@H](N)C(=O)N1CCn2c(nc(-c3ccc(F)cc3)c2Nc2ccc(F)c(F)c2)C1` [Compound 434]: the EC50 in assay [1] turned out to be 0.02 µM; in assay [2] it was 0.019 µM.
Taken in the same sequence, the figures for `C[C@H](N)C(=O)N1CCn2c(nc(-c3ccc(F)cc3)c2Nc2ccc(F)c(F)c2)C1` [Compound 435] were 0.05 µM and 0.098 µM.
Taken in the same sequence, the figures for `N[C@H](C(=O)N1CCn2c(nc(-c3ccc(F)cc3)c2Nc2ccc(F)c(F)c2)C1)c1ccc(F)cc1` [Compound 436] were 0.03 µM and 0.052 µM.
The like results for `N[C@H](C(=O)N1CCn2c(nc(-c3ccc(F)cc3)c2Nc2ccc(F)c(F)c2)C1)C1CC1` [Compound 437] were, in that order, 0.02 µM and 0.028 µM.
For `N[C@@H](CC1CC1)C(=O)N1CCn2c(nc(-c3ccc(F)cc3)c2Nc2ccc(F)c(F)c2)C1` [Compound 438], the values for the EC50 in assay [1] and in assay [2] were 0.02 µM and 0.023 µM, respectively.
As for `CC(C)C[C@H](N)C(=O)N1CCn2c(nc(-c3ccc(F)cc3)c2Nc2ccc(F)c(F)c2)C1` [Compound 439], the EC50 in assay [1] is 0.03 µM; in assay [2], 0.04 µM.
The like results for `CC(C)[C@H](O)C(=O)N1CCn2c(nc(-c3ccc(F)cc3)c2Nc2ccc(F)c(F)c2)C1` [Compound 440] were, in that order, 0.02 µM and 0.028 µM.
The like results for `O=C([C@@H]1CCN1)N1CCn2c(nc(-c3ccc(F)cc3)c2Nc2ccc(F)c(F)c2)C1` [Compound 441] were, in that order, 0.06 µM and 0.081 µM.
Take `CC[C@H](C)[C@H](N)C(=O)N1CCn2c(nc(-c3ccc(F)cc3)c2Nc2ccc(F)c(F)c2)C1` [Compound 442]: the values for the EC50 in assay [1] and in assay [2] were 0.02 µM and 0.033 µM, respectively.
Taken in the same sequence, the figures for `N[C@@H](Cc1ccc(F)cc1)C(=O)N1CCn2c(nc(-c3ccc(F)cc3)c2Nc2ccc(F)c(F)c2)C1` [Compound 443] were 0.05 µM and 0.055 µM.
The like results for `CC(C)N(c1ccc(Cl)c(F)c1)c1c(-c2ccc(F)cc2)nc2n1CCNC2` [Compound 444] were, in that order, 7.22 µM and 5.96 µM.
The like results for `CC(C)N(c1cccc(F)c1)c1c(-c2ccc(F)cc2)nc2n1CCNC2` [Compound 445] were, in that order, 2.6 µM and 3.27 µM.
`CCN(c1cccc(F)c1)c1c(-c2ccc(F)cc2)nc2n1CCNC2` [Compound 446]: the EC50 in assay [1] was 0.31 µM; in assay [2] it was 0.243 µM.
As to `C[C@H](N)C(=O)N1CCn2c(nc(-c3ccc(F)cc3)c2Nc2ccc(Cl)cc2)C1` [Compound 448], the EC50 came to 0.02 µM in assay [1] and 0.022 µM in assay [2].
Turning to `CC(C)[C@H](N)C(=O)N1CCn2c(nc(-c3ccc(F)cc3)c2Nc2ccc(Cl)cc2)C1` [Compound 449], the values for the EC50 in assay [1] and in assay [2] were 0.03 µM and 0.026 µM, respectively.
The like results for `N[C@H](C(=O)N1CCn2c(nc(-c3ccc(F)cc3)c2Nc2ccc(Cl)cc2)C1)C1CC1` [Compound 450] were, in that order, 0.02 µM and 0.015 µM.
As to `N[C@@H](CC1CC1)C(=O)N1CCn2c(nc(-c3ccc(F)cc3)c2Nc2ccc(Cl)cc2)C1` [Compound 451], the EC50 in assay [1] came to 0.03 µM; in assay [2], 0.019 µM.
Taken in the same sequence, the figures for `N[C@@H](CC1CCC1)C(=O)N1CCn2c(nc(-c3ccc(F)cc3)c2Nc2ccc(Cl)cc2)C1` [Compound 452] were 0.02 µM and 0.019 µM.
Taken in the same sequence, the figures for `CC(C)C[C@H](N)C(=O)N1CCn2c(nc(-c3ccc(F)cc3)c2Nc2ccc(Cl)cc2)C1` [Compound 453] were 0.02 µM and 0.021 µM.
The like results for `CC[C@H](C)[C@H](N)C(=O)N1CCn2c(nc(-c3ccc(F)cc3)c2Nc2ccc(Cl)cc2)C1` [Compound 454] were, in that order, 0.02 µM and 0.008 µM.
On to `CC(C)[C@H](O)C(=O)N1CCn2c(nc(-c3ccc(F)cc3)c2Nc2ccc(Cl)cc2)C1` [Compound 455], for which the EC50 in assay [1] was determined as 0.01 µM; in assay [2], 0.008 µM.
The like results for `CC(C)[C@@H](O)C(=O)N1CCn2c(nc(-c3ccc(F)cc3)c2Nc2ccc(Cl)cc2)C1` [Compound 456] were, in that order, 0.02 µM and 0.015 µM.
Taken in the same sequence, the figures for `N[C@H](C(=O)N1CCn2c(nc(-c3ccc(F)cc3)c2Nc2ccc(Cl)cc2)C1)c1ccc(F)cc1` [Compound 457] were 0.02 µM and 0.011 µM.
`N[C@@H](Cc1ccc(F)cc1)C(=O)N1CCn2c(nc(-c3ccc(F)cc3)c2Nc2ccc(Cl)cc2)C1` [Compound 458]: the EC50 in assay [1] came out at 0.02 µM; in assay [2], 0.017 µM.
As for `Cc1ccc(C[C@H](N)C(=O)N2CCn3c(nc(-c4ccc(F)cc4)c3Nc3ccc(Cl)cc3)C2)cc1` [Compound 459], the concentration giving a half-maximal response (EC50) in assay [1] was 0.04 µM; in assay [2], 0.024 µM.
Regarding `N[C@@H](Cc1ccc(F)c(F)c1)C(=O)N1CCn2c(nc(-c3ccc(F)cc3)c2Nc2ccc(Cl)cc2)C1` [Compound 460], the EC50 worked out at 0.04 µM in assay [1] and 0.033 µM in assay [2].
For `N[C@@H](Cc1cscn1)C(=O)N1CCn2c(nc(-c3ccc(F)cc3)c2Nc2ccc(Cl)cc2)C1` [Compound 461], the EC50 amounted to 0.03 µM in assay [1] and 0.022 µM in assay [2].
The like results for `O=C([C@@H]1CCN1)N1CCn2c(nc(-c3ccc(F)cc3)c2Nc2ccc(Cl)cc2)C1` [Compound 462] were, in that order, 0.05 µM and 0.037 µM.
Taken in the same sequence, the figures for `CC(C)(C)[C@H](N)C(=O)N1CCn2c(nc(-c3ccc(F)cc3)c2Nc2ccc(Cl)cc2)C1` [Compound 463] were 0.04 µM and 0.024 µM.
The like results for `CC(C)[C@H](N)C(=O)N1CCn2c(nc(-c3ccc(F)cc3)c2Nc2ccc(F)cc2)C1` [Compound 464] were, in that order, 0.03 µM and 0.024 µM.
Take `N[C@H](C(=O)N1CCn2c(nc(-c3ccc(F)cc3)c2Nc2ccc(F)cc2)C1)C1CC1` [Compound 465]: the EC50 in assay [1] is 0.0019 µM; in assay [2], 0.002 µM.
The like results for `N[C@@H](CC1CCC1)C(=O)N1CCn2c(nc(-c3ccc(F)cc3)c2Nc2ccc(F)cc2)C1` [Compound 467] were, in that order, 0.02 µM and 0.016 µM.
With `CC(C)C[C@H](N)C(=O)N1CCn2c(nc(-c3ccc(F)cc3)c2Nc2ccc(F)cc2)C1` [Compound 468], the figures for the EC50 in assay [1] and in assay [2] were 0.03 µM and 0.02 µM, respectively.
As for `CC[C@H](C)[C@H](N)C(=O)N1CCn2c(nc(-c3ccc(F)cc3)c2Nc2ccc(F)cc2)C1` [Compound 469], the EC50 in assay [1] is 0.02 µM; in assay [2], 0.016 µM.
As to `CC(C)[C@H](O)C(=O)N1CCn2c(nc(-c3ccc(F)cc3)c2Nc2ccc(F)cc2)C1` [Compound 470], the EC50 in assay [1] was 0.01 µM; in assay [2], 0.012 µM.
Taken in the same sequence, the figures for `CC(C)[C@@H](O)C(=O)N1CCn2c(nc(-c3ccc(F)cc3)c2Nc2ccc(F)cc2)C1` [Compound 471] were 0.03 µM and 0.03 µM.

(Values after patent publication US9469645B2, “Compounds and compositions for the treatment of parasitic diseases” (Novartis AG, priority 2009, dated 2016).)
